20 molecules from ChEMBL document CHEMBL3132747, “Design and synthesis of a novel series of N,4-diphenylpyrimidin-2-amine derivatives as potent and selective PI3K inhibitors” (Medchemcomm, 2014) can be followed below.

Molecules are shown by their SMILES. pIC50: −log10 of the molar value.

In general, pIC50 refers to the IC50 on a negative log10 scale, so that one unit is a factor of ten.

The subject of one experiment is HepG2. In words: Anticancer activity against human HepG2 cells by MTT assay. Type of experiment: functional, cell-based. (Formazan colour is commonly taken as a measure of viable cells.)
The next experiment deals with MCF7. The experiment in a line: Anticancer activity against human MCF7 cells by MTT assay. Type of experiment: functional, cell-based.
A further experiment concerns HeLa. The experiment in a line: Anticancer activity against human HeLa cells by MTT assay. Format: functional, cell-based.
A further experiment concerns A549. In words: Anticancer activity against human A549 cells by MTT assay. Format: functional, cell-based.
The target of experiment [1] is Phosphatidylinositol 4,5-bisphosphate 3-kinase catalytic subunit beta isoform (Homo sapiens, UniProt P42338). The experiment in a line: Inhibition of human PI3Kbeta.
The target in experiment [2] is Phosphatidylinositol 4,5-bisphosphate 3-kinase catalytic subunit gamma isoform (Homo sapiens, UniProt P48736). The experiment in a line: Inhibition of human PI3Kgamma. Conditions: for pIC50: read-out: IC50; for IC50: read-out: pIC50 (converted).
In experiment [3] the target is Phosphatidylinositol 4,5-bisphosphate 3-kinase catalytic subunit alpha isoform (Homo sapiens, UniProt P42336). The experiment in a line: Inhibition of human PI3Kalpha.
Phosphatidylinositol 4,5-bisphosphate 3-kinase catalytic subunit alpha isoform, sequence (P42336 whole entry, canonical isoform): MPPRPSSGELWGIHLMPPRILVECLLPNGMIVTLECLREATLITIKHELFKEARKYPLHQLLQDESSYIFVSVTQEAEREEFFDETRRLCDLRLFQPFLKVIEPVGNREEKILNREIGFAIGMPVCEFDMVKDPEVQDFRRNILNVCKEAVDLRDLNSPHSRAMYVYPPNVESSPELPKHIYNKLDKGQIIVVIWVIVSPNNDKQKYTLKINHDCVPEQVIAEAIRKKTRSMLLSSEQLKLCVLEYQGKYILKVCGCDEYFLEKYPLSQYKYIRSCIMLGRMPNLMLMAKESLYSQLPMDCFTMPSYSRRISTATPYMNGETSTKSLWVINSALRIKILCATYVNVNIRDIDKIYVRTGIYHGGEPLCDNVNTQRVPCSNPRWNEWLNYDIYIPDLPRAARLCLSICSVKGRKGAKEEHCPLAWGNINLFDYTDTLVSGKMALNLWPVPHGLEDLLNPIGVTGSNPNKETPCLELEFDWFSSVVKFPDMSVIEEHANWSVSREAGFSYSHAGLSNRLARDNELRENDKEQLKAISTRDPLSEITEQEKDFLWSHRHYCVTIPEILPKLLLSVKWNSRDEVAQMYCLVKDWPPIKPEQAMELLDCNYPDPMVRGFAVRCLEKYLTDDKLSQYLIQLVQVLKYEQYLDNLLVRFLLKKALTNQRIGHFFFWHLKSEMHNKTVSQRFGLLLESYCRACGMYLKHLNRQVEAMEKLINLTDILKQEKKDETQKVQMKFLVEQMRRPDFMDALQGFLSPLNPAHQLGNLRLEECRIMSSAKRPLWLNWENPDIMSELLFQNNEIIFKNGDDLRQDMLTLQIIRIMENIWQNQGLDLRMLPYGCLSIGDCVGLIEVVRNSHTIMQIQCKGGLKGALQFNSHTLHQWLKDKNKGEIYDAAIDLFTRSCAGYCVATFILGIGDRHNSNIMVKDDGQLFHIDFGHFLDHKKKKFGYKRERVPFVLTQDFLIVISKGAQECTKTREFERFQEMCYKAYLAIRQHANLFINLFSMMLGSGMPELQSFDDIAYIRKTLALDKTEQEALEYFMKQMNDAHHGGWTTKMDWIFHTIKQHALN

Phosphatidylinositol 4,5-bisphosphate 3-kinase catalytic subunit gamma isoform, sequence (P48736 whole entry, canonical isoform): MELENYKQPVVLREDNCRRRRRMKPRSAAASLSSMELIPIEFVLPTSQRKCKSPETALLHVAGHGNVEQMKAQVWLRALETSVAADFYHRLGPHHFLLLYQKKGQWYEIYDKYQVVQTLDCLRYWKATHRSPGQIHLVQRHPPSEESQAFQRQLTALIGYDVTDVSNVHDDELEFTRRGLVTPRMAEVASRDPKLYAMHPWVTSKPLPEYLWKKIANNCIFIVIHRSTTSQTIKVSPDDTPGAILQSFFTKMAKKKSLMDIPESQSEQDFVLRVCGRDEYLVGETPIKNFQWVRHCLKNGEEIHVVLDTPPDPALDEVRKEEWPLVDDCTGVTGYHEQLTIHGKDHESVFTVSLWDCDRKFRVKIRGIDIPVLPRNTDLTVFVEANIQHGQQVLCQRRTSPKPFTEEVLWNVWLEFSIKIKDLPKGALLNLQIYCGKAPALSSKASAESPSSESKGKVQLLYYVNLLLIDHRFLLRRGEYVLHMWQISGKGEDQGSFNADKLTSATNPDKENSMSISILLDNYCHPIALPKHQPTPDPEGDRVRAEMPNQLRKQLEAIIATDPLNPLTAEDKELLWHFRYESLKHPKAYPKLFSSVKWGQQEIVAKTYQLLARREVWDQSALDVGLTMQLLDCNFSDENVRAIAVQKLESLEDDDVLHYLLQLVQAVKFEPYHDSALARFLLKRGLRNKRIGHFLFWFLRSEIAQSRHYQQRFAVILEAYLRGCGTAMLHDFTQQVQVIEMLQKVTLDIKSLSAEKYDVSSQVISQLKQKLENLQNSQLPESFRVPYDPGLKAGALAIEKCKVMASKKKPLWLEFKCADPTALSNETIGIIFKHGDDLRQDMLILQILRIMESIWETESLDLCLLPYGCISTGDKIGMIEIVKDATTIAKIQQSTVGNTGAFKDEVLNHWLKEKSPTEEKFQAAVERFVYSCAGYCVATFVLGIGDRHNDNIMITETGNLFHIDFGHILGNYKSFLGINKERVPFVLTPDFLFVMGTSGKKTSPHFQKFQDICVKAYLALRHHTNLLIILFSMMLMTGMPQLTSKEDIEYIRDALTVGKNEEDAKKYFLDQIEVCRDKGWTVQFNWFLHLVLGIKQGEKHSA
Phosphatidylinositol 4,5-bisphosphate 3-kinase catalytic subunit beta isoform, sequence (P42338 whole entry, canonical isoform): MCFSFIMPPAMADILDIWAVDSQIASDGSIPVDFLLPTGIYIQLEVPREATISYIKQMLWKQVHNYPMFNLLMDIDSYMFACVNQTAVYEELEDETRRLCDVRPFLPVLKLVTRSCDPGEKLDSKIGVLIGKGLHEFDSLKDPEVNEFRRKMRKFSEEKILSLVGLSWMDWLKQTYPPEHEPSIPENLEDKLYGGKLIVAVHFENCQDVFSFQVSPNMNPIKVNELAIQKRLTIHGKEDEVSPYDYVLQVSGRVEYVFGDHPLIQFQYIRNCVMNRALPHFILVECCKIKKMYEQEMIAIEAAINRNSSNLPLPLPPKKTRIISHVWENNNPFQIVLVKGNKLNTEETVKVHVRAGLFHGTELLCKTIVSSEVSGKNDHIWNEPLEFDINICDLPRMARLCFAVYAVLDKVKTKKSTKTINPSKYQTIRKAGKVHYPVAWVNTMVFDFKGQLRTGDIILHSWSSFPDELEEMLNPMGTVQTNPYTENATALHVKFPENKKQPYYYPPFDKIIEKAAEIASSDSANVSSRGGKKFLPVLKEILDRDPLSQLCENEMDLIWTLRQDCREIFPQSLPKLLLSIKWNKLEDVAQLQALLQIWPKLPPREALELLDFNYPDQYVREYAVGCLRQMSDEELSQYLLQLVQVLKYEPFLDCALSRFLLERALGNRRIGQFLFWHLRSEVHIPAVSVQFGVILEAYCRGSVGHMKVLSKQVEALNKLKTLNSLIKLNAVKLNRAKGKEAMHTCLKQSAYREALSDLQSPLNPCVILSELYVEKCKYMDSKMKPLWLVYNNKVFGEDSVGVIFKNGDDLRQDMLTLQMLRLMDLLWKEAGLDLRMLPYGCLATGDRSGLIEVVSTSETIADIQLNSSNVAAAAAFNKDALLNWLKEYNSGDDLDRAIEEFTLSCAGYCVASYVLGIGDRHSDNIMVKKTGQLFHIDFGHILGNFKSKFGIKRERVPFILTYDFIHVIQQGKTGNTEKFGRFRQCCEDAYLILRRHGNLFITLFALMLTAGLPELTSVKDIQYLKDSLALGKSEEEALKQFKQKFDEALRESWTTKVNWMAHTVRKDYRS

As to `Nc1nc(N)c2nc(-c3cccc(O)c3)cnc2n1`, the negative logarithm of the IC50 (pIC50) with HepG2 was 6.09; in the experiment on MCF7 it was 5.99; in the experiment with HeLa, 6.82; in the experiment on A549 it was 6.31.

As to `Cc1cccc(Nc2nccc(-c3ccc(Cl)cc3Cl)n2)c1`, the pIC50 in the experiment on HepG2 is 4.88; in the experiment on MCF7, 3.60; in experiment [1], 6.07; in the experiment on HeLa, 5.12; in experiment [2], 6.56; in experiment [3], 6.09. In the experiment on A549, this molecule had a negative-log IC50 (pIC50) of 4.73. Further, the IC50 in experiment [2] is 0.274 µM.

For `COc1cccc(Nc2nccc(-c3ccc(Cl)cc3Cl)n2)c1`, the pIC50 with HepG2 is 4.01; in the experiment on MCF7 it was 3.72; in experiment [1], 6.05; with HeLa it was 4.12; in experiment [2] it was 6.56; in experiment [3] it was 6.07. The molecule also gave a negative logarithm of the IC50 (pIC50) in the experiment with A549 of 4.49. In experiment [2], the IC50 was 0.278 µM.

As for `O=[N+]([O-])c1ccc(Nc2nccc(-c3ccc(Cl)cc3Cl)n2)cc1`, the pIC50 in the experiment on HepG2 is 4.00; with MCF7 it was 3.72; in experiment [1] it was 6.03; in the experiment on HeLa it was 3.77; in experiment [2], 6.41; in experiment [3], 6.02. The same molecule showed a pIC50 in the experiment on A549 of 3.92. Further, the IC50 in experiment [2] was 0.386 µM.

On to `Clc1ccc(Nc2nccc(-c3ccc(Cl)cc3Cl)n2)c(Cl)c1`, for which the negative logarithm of the IC50 (pIC50) in the experiment on HepG2 was 5.09; with MCF7, 5.50; in experiment [1], 6.10; in the experiment with HeLa it was 5.81; in experiment [2], 6.57; in experiment [3], 6.11. The pIC50 in the experiment on A549 is 4.94. Also, the IC50 in experiment [2] is 0.268 µM.

Consider `COc1ccc(-c2ccnc(Nc3ccc(Cl)cc3)n2)cc1`, for which the negative-log IC50 (pIC50) in the experiment on HepG2 was 5.35; in the experiment with MCF7, 6.09; in experiment [1], 6.22; with HeLa, 6.51; in experiment [2], 6.78; in experiment [3], 6.26. In the experiment on A549, the pIC50 was 4.68. Besides, the IC50 in experiment [2] was 0.167 µM.

On to `COc1ccc(-c2ccnc(Nc3ccc([N+](=O)[O-])cc3)n2)cc1`, for which the pIC50 in the experiment on HepG2 was 5.98; in the experiment on MCF7, 6.11; in experiment [1] it was 6.27; with HeLa, 6.01; in experiment [2], 6.84; in experiment [3], 6.28. The same molecule gave a pIC50 in the experiment with A549 of 5.56. Moreover, the IC50 in experiment [2] is 0.143 µM.

Take `COc1ccc(-c2ccnc(Nc3ccc(Cl)cc3Cl)n2)cc1`: the negative-log IC50 (pIC50) is 6.72 in the experiment with HepG2; 5.38 in the experiment with MCF7; 6.08 in experiment [1]; 4.64 in the experiment with HeLa; 6.63 in experiment [2]; 6.13 in experiment [3]. Moreover, the pIC50 with A549 was 5.13. The IC50 in experiment [2] is 0.235 µM.

`Cc1ccc(-c2ccnc(Nc3ccc(Cl)cc3Cl)n2)cc1`: the pIC50 with HepG2 is 3.46; in the experiment on MCF7 it was under 3.00; in experiment [1] it was under 6.00; in the experiment on HeLa it was 4.04; in experiment [2], 6.43; in experiment [3], under 6.00. The molecule further gave a pIC50 in the experiment with A549 of 3.78. Moreover, in experiment [2], the IC50 is 0.371 µM.

In the case of `COc1cccc(Nc2nccc(-c3ccc(F)cc3)n2)c1`, the pIC50 in the experiment with HepG2 was 3.89; in the experiment with MCF7 it was 3.38; in experiment [1], under 6.00; with HeLa, 3.84; in experiment [2], 6.48; in experiment [3], 6.06. In addition, the pIC50 in the experiment on A549 was 4.44. The IC50 in experiment [2] was 0.334 µM.

Regarding `O=[N+]([O-])c1ccc(Nc2nccc(-c3ccc(F)cc3)n2)cc1`, the pIC50 in the experiment with HepG2 was 5.10; in the experiment on MCF7, 6.40; in experiment [1] it was 6.06; in the experiment on HeLa it was 5.45; in experiment [2] it was 6.61; in experiment [3] it was 6.17. Besides, the negative-log IC50 (pIC50) with A549 was 4.08. The IC50 in experiment [2] is 0.247 µM.

As to `Cc1cccc(Nc2nccc(-c3ccc(Br)cc3)n2)c1`, the negative logarithm of the IC50 (pIC50) was 4.13 with HepG2; 3.68 with MCF7; under 6.00 in experiment [1]; 4.15 in the experiment on HeLa; 6.47 in experiment [2]; 6.05 in experiment [3]. Also, the pIC50 in the experiment with A549 is 4.20. Besides, the IC50 in experiment [2] is 0.342 µM.

Turning to `COc1cccc(Nc2nccc(-c3ccc(Br)cc3)n2)c1`, the pIC50 in the experiment on HepG2 is 3.83; in the experiment on MCF7 it was 3.56; in experiment [1], 6.01; with HeLa, 3.82; in experiment [2], 6.45; in experiment [3] it was under 6.00. In the experiment on A549, this molecule had a pIC50 of 4.08. For the same molecule, the IC50 in experiment [2] is 0.357 µM.

Regarding `CC(C)c1ccccc1Nc1nccc(-c2ccc(Br)cc2)n1`, the pIC50 in the experiment with HepG2 is 5.15; in the experiment with MCF7, 3.95; in experiment [1], 6.06; in the experiment on HeLa, 4.94; in experiment [2] it was 6.50; in experiment [3], 6.10. This molecule gave a pIC50 in the experiment with A549 of 5.43. For the same molecule, the IC50 in experiment [2] is 0.313 µM.

On to `Clc1ccc(Nc2nccc(-c3ccc(Br)cc3)n2)cc1`, for which the pIC50 in the experiment on HepG2 is 4.32; in the experiment with MCF7 it was 5.38; in experiment [1], 6.02; in the experiment on HeLa it was 4.44; in experiment [2], 6.52; in experiment [3], 6.04. This molecule also showed a pIC50 in the experiment with A549 of 5.21. Moreover, the IC50 in experiment [2] was 0.302 µM.

Take `O=[N+]([O-])c1ccc(Nc2nccc(-c3ccc(Br)cc3)n2)cc1`: the pIC50 was 4.37 in the experiment on HepG2; 3.17 with MCF7; 6.02 in experiment [1]; 4.59 in the experiment on HeLa; 6.58 in experiment [2]; 6.02 in experiment [3]. This molecule showed a pIC50 with A549 of 4.12. For the same molecule, the IC50 in experiment [2] is 0.265 µM.

As for `Clc1ccc(Nc2nccc(-c3ccc(Br)cc3)n2)c(Cl)c1`, the pIC50 was 6.14 in the experiment with HepG2; 5.60 in the experiment with MCF7; 6.17 in experiment [1]; 5.97 with HeLa; 6.64 in experiment [2]; 6.23 in experiment [3]. The same molecule had a pIC50 in the experiment on A549 of 5.42. Besides, the IC50 in experiment [2] is 0.231 µM.

Turning to `COc1cccc(Nc2nccc(-c3ccc(Cl)c(Cl)c3)n2)c1`, the pIC50 with HepG2 was 5.47; in the experiment on MCF7, 4.68; in experiment [1] it was 6.13; in the experiment with HeLa it was 5.30; in experiment [2] it was 6.66; in experiment [3], 6.20. The pIC50 in the experiment with A549 is 5.22. For the same molecule, the IC50 in experiment [2] is 0.217 µM.

`O=[N+]([O-])c1ccc(Nc2nccc(-c3ccc(Cl)c(Cl)c3)n2)cc1`: the pIC50 was 6.30 with HepG2; 5.45 in the experiment on MCF7; 6.24 in experiment [1]; 5.74 with HeLa; 6.81 in experiment [2]; 6.30 in experiment [3]. The pIC50 in the experiment with A549 was 6.14. Moreover, in experiment [2], the IC50 is 0.154 µM.

`Clc1ccc(Nc2nccc(-c3ccc(Cl)c(Cl)c3)n2)c(Cl)c1`: the pIC50 in the experiment with HepG2 is 4.55; in the experiment on MCF7, 4.34; in experiment [1], 6.03; with HeLa, 4.64; in experiment [2] it was 6.60; in experiment [3] it was 6.08. Also, the pIC50 with A549 is 4.59. The IC50 in experiment [2] was 0.25 µM.
